Results taken from US11773109B2, “Composition for hardening soft tissue” (The Catholic University of Korea Industry—Academic …, priority 2016, dated 2023).
Entries after “also recorded” stand apart in the source; their conditions may differ.

What was measured:
pancreas of mice [1] = assay: Hardness (elastic modulus) of the mouse pancreas after treatment, hardness meter (Venustron); type: in vivo
Protocol: The measurement of the hardness according to the present invention is performed using a hardness meter, and measurement of the hardness of the pancreas is performed by measuring elastic modulus (EM) based on the Hooke's law and the Hertz's contact stress theory. The EM is a measure of the stiffness of an elastic material, and is expressed as the ratio of “the stress along the axis” and “the total strain along the axis within the range of the stress” by the Hooke's law.
(§1) More specifically, three mice were treated with 1 mM of each of the antibiotics shown above, and three mice were treated with phosphate buffered saline (PBS) as a control.
(1) Measurement of Hardness
In order to measure the resistance of the pancreas using a hardness meter, the elastic modulus (EM) of the dissected pancreas was measured using Venustron (Axiom, Koriyama, Japan) based on the Hooke's law and the Hertz's contract stress theory, and the resistance of the pancreas was calculated using the following equation: […]
(F, force; v, Poisson's ratio; t, variant of compression; r, the diameter of a rigid spherical probe that presses an object vertically)

pancreas of mice [2] = assay: Tension (suture-holding capacity) of the mouse pancreas after treatment, Newton dynamometer; type: in vivo; details: for response vs control in vivo at 1000 µM: fold of control, read-out: increase of the tension of the pancreas compared to the control
Protocol: Specifically, it means a force which occurs in an organ in response to an external force exerted by stretching or pulling action. The measurement of the tension according to the present invention is performed using a dynamometer. More specifically, the tension is determined by measuring suture-holding capacity using a Newton dynamometer. At this time, the tension is calculated by adding the weight of the tissue.
as §1
(2) Measurement of Tensile
The tension of the pancreas was measured using a dynamometer. Specifically, a pancreatic fragment having a size of 1×1×1.5 cm was prepared, and then silk 4-0 suture was passed through the tissue to form a knob, and suture-holding capacity was measured using a Newton dynamometer. At this time, the tension was calculated by adding the weight of the tissue.

[3] = mouse pancreas treated with 1 mM of compound, compared to control (PBS / untreated), result in words
[4] = mouse pancreas treated with 1 mM of compound

Row | Structure (SMILES) | change in the hardness of the pancreas compared to the control (pancreas of mice [1]; [3]) | increase of the hardness of the pancreas compared to the control (pancreas of mice [1]; mouse pancreas treated with 1 mM of compound, fold of control) [times] | change in the tension of the pancreas compared to the control (pancreas of mice [2]; [3]) | response vs control in vivo at 1000 µM (pancreas of mice [2]; [4]) [%] | change in the hardness of the pancreas compared to the control (pancreas of mice [1]; mouse, in vivo) | change in the tension of the pancreas compared to the control (pancreas of mice [2]; mouse, in vivo)
1 | CC1(C)S[C@@H]2[C@H](NC(=O)Cc3ccccc3)C(=O)N2[C@H]1C(=O)OCCCC#N [KRM-60030, 3-cyanopropyl (2S,5R,6R)-3,3-dimethyl-7-oxo-6-(2-phenylacetamido)-4-thia-1-azabicyclo[3.2.0]heptane-2-carboxylate] | both the hardness and tension of the pancreas increased | 1.5 | both the hardness and tension of the pancreas increased | 200 | – | –
2 | Cc1cc(O)c2ccccc2n1 [KRP-00006, 4-hydroxy-2-methylquinoline] | increased both the hardness and tension | – | increased both the hardness and tension | – | – | –
3 | Oc1ccc2ccccc2n1 [KRP-00014, 2-hydroxyquinoline] | increased both the hardness and tension | – | increased both the hardness and tension | ≥ 150 | – | –
4 | COc1cc(Cc2cnc(N)nc2N)cc(OC)c1OC [KRM-60088, 5-(3,4,5-trimethoxybenzyl)pyrimidine-2,4-diamine] | increased both the hardness and tension of the pancreas to significant levels | – | increased both the hardness and tension of the pancreas to significant levels | – | – | –
5 | C=CCOC(=O)[C@@H]1N2C(=O)[C@@H](NC(=O)Cc3ccccc3)[C@H]2SC1(C)C [KRM-60028, Allyl (2S,5R,6R)-3,3-dimethyl-7-oxo-6-(2-phenylacetamido)-4-thia-1-azabicyclo[3.2.0]heptane-2-carboxylate] | both the hardness and tension of the pancreas increased | – | both the hardness and tension of the pancreas increased | – | – | –
6 | Oc1c(I)cc(I)c2cccnc12 [KRP-00004, 5,7-diiodo-8-hydroxyquinoline] | increased both the hardness and tension | – | increased both the hardness and tension | ≥ 150 | – | –
7 | CC(C)(S)[C@@H](N)C(=O)O [KRM-60037, (S)-2-amino-3-mercapto-3-methylbutanoic acid, reference compound] | had the effects of increasing the tension and hardness | – | had the effects of increasing the tension and hardness | 150 | – | –
8 | Oc1cccc2cccnc12 [KRM-60042, 8-hydroxyquinoline, reference compound] | – | – | – | – | significantly increases both the hardness and tension; also recorded: had the effects of increasing the tension and hardness; also recorded: increased both the hardness and tension of the pancreas to high levels; also recorded: excellent effects on increases in both the hardness and tension | significantly increases both the hardness and tension; also recorded: had the effects of increasing the tension and hardness; also recorded: increased both the hardness and tension of the pancreas to high levels; also recorded: excellent effects on increases in both the hardness and tension
9 | Oc1ccc2ncccc2c1 [KRP-00013, 6-hydroxyquinoline] | increased both the hardness and tension | – | increased both the hardness and tension | ≥ 150 | – | –
10 | CC(C)(C)OC(=O)CCOC(=O)[C@@H]1N2C(=O)[C@@H](NC(=O)Cc3ccccc3)[C@H]2SC1(C)C [KRM-60077, 3-(tert-butoxy)-3-oxopropyl (2S,5R,6R)-3,3-dimethyl-7-oxo-6-(2-phenylacetamido)-4-thia-1-azabicyclo[3.2.0]heptane-2-carboxylate] | increased both the hardness and tension of the pancreas to significant levels | – | increased both the hardness and tension of the pancreas to significant levels | – | – | –
11 | CC(C)COC(=O)[C@@H]1N2C(=O)[C@@H](NC(=O)Cc3ccccc3)[C@H]2SC1(C)C [KRM-60078, Isobutyl (2S,5R,6R)-3,3-dimethyl-7-oxo-6-(2-phenylacetamido)-4-thia-1-azabicyclo[3.2.0]heptane-2-carboxylate] | increased both the hardness and tension of the pancreas to significant levels | – | increased both the hardness and tension of the pancreas to significant levels | – | – | –
12 | Oc1cc2ccccc2cn1 [KRP-00010, 3-hydroxyisoquinoline] | – | – | – | ~240 | – | –
13 | Oc1c(I)cc(Cl)c2cccnc12 [KRP-00003, 5-chloro-8-hydroxy-7-iodoquinoline] | increased both the hardness and tension | – | increased both the hardness and tension | ≥ 150 | – | –
14 | CC1(C)S[C@@H]2[C@H](NC(=O)[C@H](N)c3ccccc3)C(=O)N2[C@H]1C(=O)[O-].[Na+] [KRM-60036, Sodium (2S,5R,6R)-6-((R)-2-amino-2-phenylacetamido)-3,3-dimethyl-7-oxo-4-thia-1-azabicyclo[3.2.0]heptane-2-carboxylate, reference compound] | significantly increased the hardness; also recorded: had the effects of increasing the tension and hardness; also recorded: excellent effect on an increase in the hardness | – | had the effects of increasing the tension and hardness | – | – | –
15 | CCOCCOCCOC(=O)[C@@H]1N2C(=O)[C@@H](NC(=O)Cc3ccccc3)[C@H]2SC1(C)C [KRM-60080, 2-(2-ethoxyethoxy)ethyl (2S,5R,6R)-3,3-dimethyl-7-oxo-6-(2-phenylacetamido)-4-thia-1-azabicyclo[3.2.0]heptane-2-carboxylate] | increased both the hardness and tension of the pancreas to significant levels | – | increased both the hardness and tension of the pancreas to significant levels | – | – | –
16 | O=C(O)c1ccc2cccnc2c1O [KRP-00016, 8-hydroxyquinoline-7-carboxylic acid] | increased both the hardness and tension | – | increased both the hardness and tension | ≥ 150 | – | –
17 | CC(=O)N1CCN(c2ccc(OC[C@H]3CO[C@](Cn4ccnc4)(c4ccc(Cl)cc4Cl)O3)cc2)CC1 [KRM-60049, 1-(4-(4-(((2R,4S)-2-((1H-imidazol-1-yl)methyl)-2-(2,4-dichlorophenyl)-1,3-dioxolan-4-yl)methoxy)phenyl)piperazin-1-yl)ethanone, reference compound] | had the effects of increasing the tension and hardness; also recorded: increased both the hardness and tension of the pancreas to high levels | – | had the effects of increasing the tension and hardness; also recorded: increased both the hardness and tension of the pancreas to high levels | – | – | –
18 | CC(=O)OCC1=C(C(=O)O)N2C(=O)[C@@H](N)[C@H]2SC1 [KRM-60081, (6R,7R)-3-(acetoxymethyl)-7-amino-8-oxo-5-thia-1-azabicyclo[4.2.0]oct-2-ene-2-carboxylic acid] | increased both the hardness and tension of the pancreas to significant levels | – | increased both the hardness and tension of the pancreas to significant levels | – | – | –
19 | O=C(O)c1cnc2cc(C(F)(F)F)ccc2c1O [KRP-00009, 4-hydroxy-7-trifluoromethyl-3-quinolinecarboxylic acid] | increased both the hardness and tension | – | increased both the hardness and tension | ≥ 150 | – | –
20 | Oc1ccnc2ccccc12 [KRP-00012, 4-hydroxyquinoline] | increased both the hardness and tension | – | increased both the hardness and tension | ≥ 150 | – | –
21 | CC1(C)S[C@@H]2[C@H](NC(=O)Cc3ccccc3)C(=O)N2[C@H]1C(=O)O.[K+] [KRM-60027, Potassium (2S,5R,6R)-3,3-dimethyl-7-oxo-6-(2-phenylacetamido)-4-thia-1-azabicyclo[3.2.0]heptane-2-carboxylate, reference compound] | – | – | significantly increasing the tension; also recorded: had the effects of increasing the tension and hardness; also recorded: increased the tension of the pancreas to a significant level; also recorded: excellent effect on an increase in the tension; also recorded: significant increase in the tension | – | – | –
